For nine cell lines, relative viability results are on record in the supplement of paper PMC10307832.

Holding throughout (test): relative viability (nuclei count vs DMSO), 5 days (fraction); higher = more cells survive
Compound in the experiment “QS11 + OSI-027”: C1CC2=C(C1)C=C(C=C2)OC3=NC(=C4C(=N3)N(C=N4)CC5=CC=C(C=C5)C6=CC=CC=C6)N[C@@H](CC7=CC=CC=C7)CO [QS11] + COc1cccc2cc(-c3nc([C@H]4CC[C@H](C(=O)O)CC4)n4ncnc(N)c34)[nH]c12 [OSI-027] (partner 0.5 µM)
A digest of the protocol:
(§1)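 One day after seeding in 1536-well plates, lung cancer cell lines were dosed by pin tool. Dosing was either single-drug or a fixed anchor-drug dose plus five library-drug doses (not always all listed) in √10 steps. After 5 days, nuclei were stained in one fix-and-stain step and counted on 4× images, and relative viability is the nuclei count of treated wells over that of vehicle wells, given as the median of duplicate plates.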

Compound in the experiment “QS11 + Pemetrexed”: C1CC2=C(C1)C=C(C=C2)OC3=NC(=C4C(=N3)N(C=N4)CC5=CC=C(C=C5)C6=CC=CC=C6)N[C@@H](CC7=CC=CC=C7)CO [QS11] + Nc1nc2[nH]cc(CCc3ccc(C(=O)N[C@@H](CCC(=O)O)C(=O)O)cc3)c2c(=O)[nH]1 [Pemetrexed] (partner 0.2 µM)
Summed up: as §1

Compound in the experiment “QS11 + Vorinostat”: C1CC2=C(C1)C=C(C=C2)OC3=NC(=C4C(=N3)N(C=N4)CC5=CC=C(C=C5)C6=CC=CC=C6)N[C@@H](CC7=CC=CC=C7)CO [QS11] + O=C(CCCCCCC(=O)Nc1ccccc1)NO [Vorinostat] (partner 1 µM)
Summed up: as §1

Compound in the experiment “AZ628 + Pictilisib”: CC1=C(C=C(C=C1)NC(=O)C2=CC(=CC=C2)C(C)(C)C#N)NC3=CC4=C(C=C3)N=CN(C4=O)C [AZ628] + CS(=O)(=O)N1CCN(Cc2cc3nc(-c4cccc5[nH]ncc45)nc(N4CCOCC4)c3s2)CC1 [Pictilisib] (partner 1 µM)
A digest of the protocol:
as §1

As for NCI-H2228, the relative viability came out at 0.534 with QS11 + OSI-027 (first compound 0.08 µM); 0.424 with QS11 + OSI-027 (first compound 0.253 µM); 0.538 with QS11 + OSI-027 (first compound 0.8 µM); 0.74 with QS11 + OSI-027 (first compound 2.53 µM); 0.597 with QS11 + OSI-027 (first compound 8 µM); 0.342 with QS11 + Pemetrexed (first compound 0.08 µM). Moreover, the relative viability came to 0.337 with QS11 + Pemetrexed (first compound 0.253 µM); 0.324 in the experiment with QS11 + Pemetrexed (first compound 0.8 µM); 0.374 in the experiment with QS11 + Pemetrexed (first compound 2.53 µM); 0.372 with QS11 + Pemetrexed (first compound 8 µM); 0.62 with QS11 + Vorinostat (first compound 0.08 µM); 0.535 with QS11 + Vorinostat (first compound 0.253 µM). For the same cell line, the relative viability in the experiment with QS11 + Vorinostat (first compound 0.8 µM) worked out at 0.61; with QS11 + Vorinostat (first compound 2.53 µM), 1.17; in the experiment with QS11 + Vorinostat (first compound 8 µM), 0.741; in the experiment with AZ628 + Pictilisib (first compound 0.08 µM), 0.397; with AZ628 + Pictilisib (first compound 0.253 µM), 0.32; with AZ628 + Pictilisib (first compound 0.8 µM) it was 0.368. For the same cell line, the values for the relative viability in the experiment with AZ628 + Pictilisib (first compound 2.53 µM) and with AZ628 + Pictilisib (first compound 8 µM) were 0.329 and 0.264, respectively.
Consider NCI-H1792, for which the relative viability in the experiment with QS11 + OSI-027 (first compound 0.08 µM) was found to be 0.731; with QS11 + OSI-027 (first compound 0.253 µM) it was 0.969; with QS11 + OSI-027 (first compound 0.8 µM), 0.65; in the experiment with QS11 + OSI-027 (first compound 2.53 µM), 0.565; in the experiment with QS11 + OSI-027 (first compound 8 µM), 0.82; with QS11 + Pemetrexed (first compound 0.253 µM), 0.603. For the same cell line, the relative viability in the experiment with QS11 + Pemetrexed (first compound 0.8 µM) came out at 0.925; with QS11 + Pemetrexed (first compound 2.53 µM) it was 0.629; in the experiment with QS11 + Pemetrexed (first compound 8 µM) it was 0.514; with AZ628 + Pictilisib (first compound 0.08 µM) it was 0.251; with AZ628 + Pictilisib (first compound 0.253 µM) it was 0.296; with AZ628 + Pictilisib (first compound 0.8 µM), 0.212. The relative viability with AZ628 + Pictilisib (first compound 2.53 µM) worked out at 0.223; with AZ628 + Pictilisib (first compound 8 µM) it was 0.149.
In the case of LOU-NH91, the relative viability in the experiment with QS11 + OSI-027 (first compound 0.08 µM) came to 0.678; with QS11 + OSI-027 (first compound 0.253 µM), 0.722; with QS11 + OSI-027 (first compound 0.8 µM) it was 0.693; in the experiment with QS11 + OSI-027 (first compound 2.53 µM) it was 0.728; in the experiment with QS11 + OSI-027 (first compound 8 µM), 0.71; with QS11 + Pemetrexed (first compound 0.08 µM), 0.347. In addition, the relative viability with QS11 + Pemetrexed (first compound 0.253 µM) is 0.369; with QS11 + Pemetrexed (first compound 0.8 µM), 0.351; with QS11 + Pemetrexed (first compound 2.53 µM), 0.457; with QS11 + Pemetrexed (first compound 8 µM), 0.306; with QS11 + Vorinostat (first compound 0.08 µM), 0.896; with QS11 + Vorinostat (first compound 0.253 µM), 0.858. Moreover, the relative viability with QS11 + Vorinostat (first compound 0.8 µM) worked out at 0.871; in the experiment with QS11 + Vorinostat (first compound 2.53 µM), 0.936; with QS11 + Vorinostat (first compound 8 µM), 0.916; in the experiment with AZ628 + Pictilisib (first compound 0.08 µM), 0.582; in the experiment with AZ628 + Pictilisib (first compound 0.253 µM), 0.491; in the experiment with AZ628 + Pictilisib (first compound 0.8 µM), 0.492. Further, the relative viability with AZ628 + Pictilisib (first compound 2.53 µM) stood at 0.501; in the experiment with AZ628 + Pictilisib (first compound 8 µM) it was 0.452.
As to IA-LM, the relative viability stood at 0.926 with QS11 + Vorinostat (first compound 0.08 µM); 1.13 with QS11 + Vorinostat (first compound 0.253 µM); 0.674 with QS11 + Vorinostat (first compound 0.8 µM); 0.806 in the experiment with QS11 + Vorinostat (first compound 2.53 µM); 0.88 with QS11 + Vorinostat (first compound 8 µM); 0.352 with AZ628 + Pictilisib (first compound 0.08 µM). The relative viability came to 0.231 in the experiment with AZ628 + Pictilisib (first compound 0.253 µM), 0.155 with AZ628 + Pictilisib (first compound 0.8 µM), 0.145 with AZ628 + Pictilisib (first compound 2.53 µM) and 0.115 with AZ628 + Pictilisib (first compound 8 µM).
As for SW 900, the relative viability with QS11 + OSI-027 (first compound 0.08 µM) turned out to be 0.547; in the experiment with QS11 + OSI-027 (first compound 0.253 µM), 0.601; with QS11 + OSI-027 (first compound 0.8 µM), 0.661; in the experiment with QS11 + OSI-027 (first compound 2.53 µM), 0.487; with QS11 + OSI-027 (first compound 8 µM) it was 0.423; with QS11 + Pemetrexed (first compound 0.08 µM), 0.384. Further, the relative viability in the experiment with QS11 + Pemetrexed (first compound 0.253 µM) turned out to be 0.456; in the experiment with QS11 + Pemetrexed (first compound 0.8 µM) it was 0.465; with QS11 + Pemetrexed (first compound 2.53 µM), 0.503; with QS11 + Pemetrexed (first compound 8 µM), 0.514; in the experiment with QS11 + Vorinostat (first compound 0.08 µM), 0.295; in the experiment with QS11 + Vorinostat (first compound 0.253 µM), 0.378. Moreover, the relative viability in the experiment with QS11 + Vorinostat (first compound 0.8 µM) came out at 0.452; with QS11 + Vorinostat (first compound 2.53 µM), 0.457; with QS11 + Vorinostat (first compound 8 µM) it was 0.348.
For the cell line LU99A, the relative viability is 0.255 with QS11 + OSI-027 (first compound 0.08 µM); 0.306 with QS11 + OSI-027 (first compound 0.253 µM); 0.299 in the experiment with QS11 + OSI-027 (first compound 0.8 µM); 0.291 with QS11 + OSI-027 (first compound 2.53 µM); 0.315 in the experiment with QS11 + OSI-027 (first compound 8 µM); 0.169 with QS11 + Pemetrexed (first compound 0.08 µM). Further, the relative viability was found to be 0.172 in the experiment with QS11 + Pemetrexed (first compound 0.253 µM); 0.173 with QS11 + Pemetrexed (first compound 0.8 µM); 0.169 with QS11 + Pemetrexed (first compound 2.53 µM); 0.168 with QS11 + Pemetrexed (first compound 8 µM); 0.432 with QS11 + Vorinostat (first compound 0.08 µM); 0.438 with QS11 + Vorinostat (first compound 0.253 µM). Also, the relative viability turned out to be 0.51 with QS11 + Vorinostat (first compound 0.8 µM); 0.515 in the experiment with QS11 + Vorinostat (first compound 2.53 µM); 0.464 with QS11 + Vorinostat (first compound 8 µM); 0.274 with AZ628 + Pictilisib (first compound 0.08 µM); 0.306 with AZ628 + Pictilisib (first compound 0.253 µM); 0.362 with AZ628 + Pictilisib (first compound 0.8 µM). The relative viability with AZ628 + Pictilisib (first compound 2.53 µM) was 0.331; with AZ628 + Pictilisib (first compound 8 µM), 0.205.
Regarding NCI-H661, the relative viability with QS11 + OSI-027 (first compound 0.08 µM) turned out to be 0.696; with QS11 + OSI-027 (first compound 0.253 µM) it was 0.75; with QS11 + OSI-027 (first compound 0.8 µM), 0.69; with QS11 + OSI-027 (first compound 2.53 µM), 0.618; in the experiment with QS11 + OSI-027 (first compound 8 µM), 0.549; in the experiment with QS11 + Pemetrexed (first compound 0.08 µM), 1.03. The relative viability worked out at 0.911 with QS11 + Pemetrexed (first compound 0.253 µM); 0.794 with QS11 + Pemetrexed (first compound 0.8 µM); 0.953 with QS11 + Pemetrexed (first compound 2.53 µM); 0.857 with QS11 + Pemetrexed (first compound 8 µM); 0.786 in the experiment with QS11 + Vorinostat (first compound 0.08 µM); 0.805 in the experiment with QS11 + Vorinostat (first compound 0.253 µM). Besides, the relative viability with QS11 + Vorinostat (first compound 0.8 µM) was determined as 0.632; with QS11 + Vorinostat (first compound 2.53 µM), 0.804; with QS11 + Vorinostat (first compound 8 µM), 0.672; in the experiment with AZ628 + Pictilisib (first compound 0.08 µM) it was 0.401; with AZ628 + Pictilisib (first compound 0.253 µM), 0.312; with AZ628 + Pictilisib (first compound 0.8 µM) it was 0.302. Moreover, the relative viability was 0.353 with AZ628 + Pictilisib (first compound 2.53 µM) and 0.331 with AZ628 + Pictilisib (first compound 8 µM).
For the cell line EBC-1, the relative viability stood at 0.341 with AZ628 + Pictilisib (first compound 0.08 µM); 0.299 with AZ628 + Pictilisib (first compound 0.253 µM); 0.271 in the experiment with AZ628 + Pictilisib (first compound 0.8 µM); 0.233 with AZ628 + Pictilisib (first compound 2.53 µM); 0.201 with AZ628 + Pictilisib (first compound 8 µM).
For the cell line NCI-H3122, the relative viability with QS11 + OSI-027 (first compound 0.08 µM) turned out to be 1.03; with QS11 + OSI-027 (first compound 0.253 µM), 1.41; in the experiment with QS11 + OSI-027 (first compound 2.53 µM) it was 0.994; with QS11 + OSI-027 (first compound 8 µM), 0.757; in the experiment with QS11 + Pemetrexed (first compound 0.08 µM), 0.2; in the experiment with QS11 + Pemetrexed (first compound 0.253 µM) it was 0.214. The relative viability came out at 0.25 in the experiment with QS11 + Pemetrexed (first compound 2.53 µM); 0.296 with QS11 + Pemetrexed (first compound 8 µM); 1 with QS11 + Vorinostat (first compound 0.08 µM); 1.21 with QS11 + Vorinostat (first compound 0.253 µM); 1.03 with QS11 + Vorinostat (first compound 2.53 µM); 0.584 in the experiment with QS11 + Vorinostat (first compound 8 µM). The relative viability in the experiment with AZ628 + Pictilisib (first compound 0.08 µM) came to 0.286; in the experiment with AZ628 + Pictilisib (first compound 0.253 µM) it was 0.218; with AZ628 + Pictilisib (first compound 0.8 µM) it was 0.214; with AZ628 + Pictilisib (first compound 2.53 µM), 0.214; in the experiment with AZ628 + Pictilisib (first compound 8 µM) it was 0.234.
